Reference: patent US8293724B2, “Therapeutic applications of fatty acid amide hydrolase inhibitors” (The United States of America, as represented by the …, priority 2007, dated 2012)
“Also recorded” adds a separate entry of the source.

Key:
[1] = tested on: Wistar-Kyoto rats (WKY); test: Hemodynamic measurements in normotensive Wistar-Kyoto rats; format: in vivo, rat
Experimental: (§1) Anandamide, the CB1 receptor antagonist AM251, and the anandamide transport inhibitors AM404 and OMDM-2 were obtained from Tocris; and the CB1 antagonist SR141716 and the CB2 antagonist SR144528 were from the National Institute on Drug Abuse drug supply program. Drugs were mixed in corn oil and sonicated for 5 minutes at 4° C. The mixture was added to 4 parts of Pluronic F68 (Sigma-Aldrich) solution (40 mg/mL) dissolved in water and sonicated to obtain a stable suspension for bolus intravenous injections.
(§2) Rats were obtained from Harlan (Indianapolis, Ind.). Male, 8- to 10-month-old SHR, age-matched male Wistar-Kyoto rats (WKY), and 8- to 10-week-old male Sprague-Dawley rats were maintained on standard rat chow and water ad libitum. Dahl salt-sensitive and salt-resistant rats (male, Rapp strain, 6 weeks old) were maintained for 4 weeks on rat chow containing either 0.12% or 8% NaCl. Systolic blood pressure monitored daily by the tail-cuff technique was 120±11 mm Hg (salt-sensitive, 0.12% NaCl), 180±14 mm Hg (salt-sensitive, 8% NaCl), and 118±9 mm Hg (salt-resistant, 8% NaCl). Hypertension was induced in Sprague-Dawley rats by chronic infusion of angiotensin II (60 ng/min) via an osmotic minipump (Imig et al. Hypertension 2002; 39: 690-694. Rats were used 10 to 12 days after implantation of the minipump.
(§3) For hemodynamic measurements, rats were anesthetized with pentobarbital sodium (60 mg/kg IP) and tracheotomized to facilitate breathing. Animals were placed on controlled heating pads, and core temperature, measured via a rectal probe, was maintained at 37° C. A microtip pressure-volume catheter (SPR-838; Millar Instruments) was inserted into the right carotid artery and advanced into the left ventricle (LV) under pressure control as described previously. Polyethylene cannulae (P50) were inserted into the right femoral artery and vein for measurement of mean arterial pressure (MAP) and administration of drugs, respectively. […] Heart rate, maximal LV systolic pressure, MAP, and maximal slope of systolic pressure increment (+dP/dt) were computed with a cardiac pressure-volume analysis program (PVAN2.9; Millar). Cardiac output calculated and corrected according to in vitro and in vivo volume calibrations with PVAN2.918 was normalized to body weight (cardiac index [CI]). Total peripheral resistance index (TPRI) was calculated by the equation TPRI=MAP/CI. In 3 experiments, drugs were microinjected into the fourth cerebral ventricle as described by Ramirez-Gonzalez et al. Circ Res. 1983; 53, 150-157.
(§4) Time-dependent variables were analyzed by ANOVA followed by the Dunnett post hoc test. In other cases, the Student t test was used, as appropriate. Values with P<0.05 were considered statistically significant.

[2] = tested on: spontaneously hypertensive rat (SHR); test: Hemodynamic measurements in anesthetized spontaneously hypertensive rats; format: in vivo; settings: for change in MAP: n=4
Experimental: as §1
as §2, with “Systolic blood pressure monitored daily by the tail-cuff technique was 120±11 mm Hg (salt-sensitive, 0.12% NaCl), 180±14 mm Hg (salt-sensitive, 8% NaCl), and 118±9 mm Hg (salt-resistant, 8% NaCl).” left out
as §3, §4

[3] = Non-fasting blood glucose in SHR and WKY; settings: URB597 10 mg/kg i.p., n=4
[4] = tested on: male DIO mice (wild-type C57Bl6/J on high-fat diet); test: Intraperitoneal glucose tolerance test in wild-type mice with diet-induced obesity; format: in vivo; settings: URB597 10 mg/kg i.p., 60 min before glucose 1.5 g/kg i.p., 10 mg/kg
Experimental: (§5) Male C57Bl6/J mice, wild-type or liver-specific CB1 receptor knockout, were kept on a diet containing 60% of calories as fat (Research Diets Inc) for 14 weeks, by which time both strains have become fat due to increased adipose mass. […] Sixty minutes later the mice received 1.5 g/kg glucose i.p. and blood glucose levels were monitored for 2 hours.

[5] = molecular target: T1, FAAH (Mus musculus, UniProt O08914); test: FAAH activity in brain and liver homogenates following in vivo administration; design: species or system mice; settings: mouse
T1 construct: the brain and liver removed, and tissue homogenates prepared as described above; from tissue; host or cells: mouse brain and liver homogenates after in vivo dosing
T1 sequence (O08914 1-579): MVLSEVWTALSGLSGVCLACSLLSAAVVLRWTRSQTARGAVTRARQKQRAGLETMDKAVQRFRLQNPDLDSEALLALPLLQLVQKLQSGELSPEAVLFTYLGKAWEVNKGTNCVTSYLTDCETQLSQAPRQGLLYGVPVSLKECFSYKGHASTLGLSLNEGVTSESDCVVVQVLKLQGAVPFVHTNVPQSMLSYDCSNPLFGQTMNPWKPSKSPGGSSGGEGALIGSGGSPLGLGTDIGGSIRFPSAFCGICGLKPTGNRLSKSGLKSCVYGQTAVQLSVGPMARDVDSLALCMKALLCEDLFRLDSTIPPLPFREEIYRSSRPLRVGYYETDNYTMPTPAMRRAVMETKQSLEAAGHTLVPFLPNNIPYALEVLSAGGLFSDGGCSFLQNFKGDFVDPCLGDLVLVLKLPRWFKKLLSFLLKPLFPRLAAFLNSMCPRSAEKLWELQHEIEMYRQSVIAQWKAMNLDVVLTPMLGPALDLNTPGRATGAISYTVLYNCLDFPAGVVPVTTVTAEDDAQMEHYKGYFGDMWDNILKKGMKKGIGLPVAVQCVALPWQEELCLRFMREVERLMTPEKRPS
Experimental: For the experiments illustrated in FIG. 3, FAAH activity was assessed through a different method not requiring TLC separation, as described by Jonsson et al: Br. J. Pharmacol. 133:1263-1275, 1997. […] The mice were sacrificed one hour later, the brain and liver removed, and tissue homogenates prepared as described above. [^3H]Anandamide labeled on the ethanolamide moiety was added to the homogenate and incubated at 37° C. for 10 min. The homogenate was then extracted twice with chloroform:methanol 1:1 and the radioactivity in the aqueous phase (containing the released ethanolamide) was counted.

[6] = tested on: normotensive controls (Sprague-Dawley rats); test: Blood pressure in normotensive controls of angiotensin II-treated rats; format: in vivo, rat; settings: URB597, normotensive controls of angiotensin II-treated rats
From the text: as §2
(§6) For hemodynamic measurements, rats were anesthetized with pentobarbital sodium (60 mg/kg IP) and tracheotomized to facilitate breathing. Animals were placed on controlled heating pads, and core temperature, measured via a rectal probe, was maintained at 37° C. […] Cardiac output calculated and corrected according to in vitro and in vivo volume calibrations with PVAN2.918 was normalized to body weight (cardiac index [CI]). Total peripheral resistance index (TPRI) was calculated by the equation TPRI=MAP/CI. […]

[7] = tested on: liver-specific CB1 receptor knockout mice; test: Intraperitoneal glucose tolerance test in liver-specific CB1 receptor knockout mice on high-fat diet; format: in vivo; settings: URB597 10 mg/kg i.p., liver-specific CB1 knockout mice on HFD
Experimental: as §5

[8] = tested on: angiotensin II-treated hypertensive rats; test: Blood pressure in angiotensin II-treated hypertensive rats; format: in vivo, rat
From the text: as §2, §6

For `CCCCCCC(C)(C)c1cc(O)c2c(c1)OC(C)(C)[C@@H]1CC=C(CO)C[C@@H]21` [HU210], the “hypotensive EC50” value ([1]; n=6) was 5.9 µg/kg, the maximal hypotensive effect ([1]; n=6) was −39±14 mm Hg and the “hypotensive EC50” value ([2]; SHR, n=6) was 1.5 µg/kg. For the same compound, the maximal hypotensive effect ([2]; SHR, n=6) was −108±11 mm Hg.

In the case of `CCCCCCCC/C=C\CCCCCCCC(=O)N[C@@H](CO)Cc1ccc(O)cc1` [OMDM-2], the “change in MAP” value ([1]; OMDM-2 5 mg/kg) is reported as “no significant change” and the “change in MAP” value ([2]; OMDM-2 5 mg/kg, SHR) is reported as −39±10 mm Hg.

With `NC(=O)c1cccc(-c2cccc(OC(=O)NC3CCCCC3)c2)c1` [URB597] the hemodynamic effects ([1]; URB597 10 mg/kg IV) was “no detectable hemodynamic effects”, the “non-fasting blood glucose after treatment” value ([3]; SHR, from 104.0±7.4) was 144.0 ± 9.6 mg/dL and the “non-fasting blood glucose after treatment” value ([3]; WKY, from 90.0±7.2) was 135.3 ± 12.9 mg/dL. The glucose intolerance [4] was “marked increase in their glucose intolerance; also recorded: increases glucose intolerance”, the “inhibition of FAAH activity in the liver” value ([5]; in vivo, 10 mg/kg) was “significantly inhibits FAAH activity in the liver” and the “inhibition of FAAH in brain” value ([5]; in vivo, 10 mg/kg) was “near complete inhibition”. The inhibition at 10 mg/kg ([5]; read-out: inhibition of FAAH in liver) was > 90%, the ED50 ([2]; Rattus norvegicus, dose-response studies, n=3, read-out: hypotensive ED50) was 1.7 mg/kg and the “hypotensive response after pretreatment with the VR1 antagonist capsazepine” value ([2]; SHR) was “not affected by capsazepine pretreatment”. For the same compound, the LV systolic pressure ([2]; URB597 10 mg/kg IV, SHR) was “decreased”, the TPRI ([2]; URB597 10 mg/kg IV, SHR) was “decreased” and the arterial pressure ([2]; URB597 10 mg/kg IV, SHR) was “decreased arterial pressure to normotensive levels”. For the same compound, the dP/dt ([2]; URB597 10 mg/kg IV, SHR) was “decreased”, the “cardiac contractility (pressure/volume relationship)” value ([2]; URB597, SHR) was “decrease in cardiac contractility” and the “effects of URB597 in the hypertensive animals in the presence of CB1 antagonists” value ([2]; hypertensive animals, CB1 antagonists) was “could be prevented by CB1 antagonists”. For the same compound, the blood pressure [6] was “not in their normotensive controls”, the glucose tolerance [7] was “failed to affect glucose tolerance” and the blood pressure ([8]; URB597, angiotensin II-treated hypertensive rats) was “lowered blood pressure”.

With `CCCCC/C=C\C/C=C\C/C=C\C/C=C\CCCC(=O)Nc1ccc(O)cc1` [AM404] the “change in MAP” value ([1]; AM404 10 mg/kg) was “no significant change” and the “change in MAP” value ([2]; AM404 10 mg/kg, SHR) was −63±19 mm Hg.

In the case of `CCCCC/C=C\C/C=C\C/C=C\C/C=C\CCCC(=O)NCCO` [anandamide], the blood pressure ([1]; anandamide 10 mg/kg) is reported as “modest and short-lasting”, the cardiac contractility ([1]; anandamide 10 mg/kg) is reported as “modest and short-lasting” and the “duration of decrease in blood pressure and cardiac contractility” value ([1]; anandamide 10 mg/kg) is reported as < 5 min. For the same compound, the other hemodynamic changes ([1]; anandamide 10 mg/kg) was “without other hemodynamic changes”, the “hypotensive response after pretreatment with the VR1 antagonist capsazepine” value ([2]; SHR) was “not affected by capsazepine pretreatment” and the CI ([2]; anandamide 10 mg/kg, SHR) was “decreases”. For the same compound, the TPRI ([2]; anandamide 10 mg/kg, SHR) was “decreases”, the blood pressure ([2]; anandamide 10 mg/kg, SHR) was “sustained decrease in blood pressure to near normotensive levels” and the “cardiac contractility (dP/dt, LV systolic pressure)” value ([2]; anandamide 10 mg/kg, SHR) was “decreases”. The heart rate ([2]; anandamide 10 mg/kg, SHR) was “decreases” and the anandamide-induced hypotension ([8]; rats with angiotensin II-induced hypertension) was “potentiated”.
